Source: US9029582B2, “Pharmaceutical composition” (Capital, Business Y Gestion de Finanzas S.L., priority 2011, dated 2015)

Columns and labels:
[1] = Stability test of the fulvestrant solution in acetic acid during 6 hours at room temperature (HPLC titer and impurities); assay type: physicochemical; conditions: fulvestrant in glacial acetic acid
Procedure: To a 10 mL beaker, fitted with a magnetic stirrer, 2.5 mL glacial acetic acid, Merck lot K 36685863, is added.
Fifty mg Fulvestrant from Scinopharm, lot#70850AA003 were weighed using an Ohaus model Adventurer balance.
Stirring of acetic acid is started and Fulvestrant is slowly added which is rapidly dissolved. After all Fulvestrant was added stirring is continued for 5 minutes.
Stirring is stopped and the solution is left at room temperature for 6 hours, then dissolution is analyzed in terms of titer and purity by HPLC, and compared to Scinopharm Fulvestrant as used for manufacturing the lyophilizate. HPLC determinations were carried out on an HPLC Waters with a Waters 1525 binary pump, Waters 717 autosampler, and a Waters 2996 diode array detector; the HPLC column used for determining titer and purity is an Agilent Eclipse XDB-C8 3.5 u 4.6×150 Rapid Res column; the chromatographic method corresponds to US Pharmacopeia (USP, 34 (2011)) monograph for Fulvestrant.

[2] = Dissolution / reconstitution time at 50 mg/mL in castor oil, ethanol and benzyl alcohol solvent (benzyl benzoate-free); assay type: physicochemical; conditions: solvent of castor oil and benzyl benzoate-free alcohol mixtures
Procedure: The lyophilizate should be reconstituted within a reasonable period, typically of less than 2 minutes (5); if reconstitution time is excessive, that is, more than 3 minutes, the user may get impatient or frustrated (6). […] This comparison was performed by dissolving fulvestrant at a concentration of 50 mg/mL, using a solvent comprising castor oil and benzyl benzoate-free alcohol mixtures.
A 50 mL Schott, type I, glass vial is placed on an Ohaus Adventurer balance. Then, 3.12 g Merck ethanol, 4.17 g Sigma-Aldrich benzyl alcohol and 12.70 g Sigma-Aldrich castor oil are added.
With the aid of a 1000 uL Eppendorf Research micropipette, 5 mL of the previously prepared solvent was added into an 11 mL Nuova Ompi type I of glass vial. The vial is capped with a solution S-additive plug from WestPharma and crimped with an aluminum seal.
The process for reconstituting a vial of lyophilizate of example 1 with the solvent of said example, using a Needle-less Transfer System Transfer Device 20/20 w/150 mic Filter Sterile from Westpharma, FIG. 9, is as follows:
10. The complete content of the syringe is discharged into the lyophilizate vial. […]
Using a Sper Scientific timer, it was determined that less than 90 seconds were required for reconstituting the lyophilizate. […]
It was determined that more than 60 minutes were required to completely dissolve Fulvestrant in the solvent using a Sper Scientific timer.

[3] = cited from earlier work

With `C[C@]12CC[C@@H]3c4ccc(O)cc4C[C@@H](CCCCCCCCC[S+]([O-])CCCC(F)(F)C(F)(F)F)[C@H]3[C@@H]1CC[C@@H]2O` (some centres unmarked) [Fulvestrant] the “titer of the solution” value [1] was 99.2%, the “total impurities in the solution” value [1] was 0.1% and the dissolution time [2] was “more than 60 minutes”. For the same compound, the “solubility in castor oil with organic solvents (alcohol) and a non-aqueous ester-type solvent” value ([3]; carrier of US 6,774,122) was “at least 50 mg/mL”, the solubility in ethanol ([3]; ethanol, ref (3) US 6,774,122) was “highly soluble” and the “fulvestrant solubility in propylene glycol” value ([3]; propylene glycol, according to ref (7) US 2009/0227549) was 4 mg/mL. For the same compound, the solubility in tert-butanol ([3]; tert-butanol, ref (7)) was “highly soluble” and the solubility in water ([3]; water, ref (3)) was “practically insoluble”.
